This note sets out measurements from US20050239873A1 (priority 1999, published 2005).

In this assay the test system is TABX2S cells (over-expressing Bcl-xL). Nature of the assay: cells. The text has this: Briefly, a DNA fragment encoding the full-length mouse BCl-xL cDNA was isolated from the plasmid PBS.BCL-xL (Tzung et al., Am. J. Path. 150:1985-1995, 1997, incorporated herein by reference in its entirety) by digestion with the restriction endonuclease EcoRI. This EcoRI fragment was cloned into the EcoRI site of the mammalian expression vector pSFFV (Fuhlbrigge et al., Proc. Nat. Acad. Sci. USA 85:5649-5653, 1988) in both sense and antisense orientations, to form expression plasmids pSFFV.Bcl-xL(sense) or pSFFV.Bcl-xL(antisense), respectively. The tumorigenic murine hepatocyte cell line TAMH was transfected by lipofection (Lipofectamine, Life Technologies, Rockville, Md., according to the manufacturer's recommendations) with the plasmids pSFFV.neo (the control), pSFFV.Bcl-xL(sense) or pSFFV.Bcl-xL(antisense). […] Transfectants were selected for the acquisition of neomycin resistance by growing cells in the presence of 750 μg/ml of G418. Bulk transfectants were cloned by limiting dilution and individual clones were screened by immunoblot analysis to determine the level of BCl-xL protein expression as described below.
Selected transfectants were then tested for whole cell sensitivity to several apoptotic agents. Transfected cells were cultured to reach approximately 80% confluency prior to plating an equal number of cells from selected clones on 12-well tissue culture plates. The transplanted cells were treated with the following apoptotic agents: 5 μM doxorubicin for 48 hours; 5 μM cisplatin for 48 hours; or with 200 U/ml tumor necrosis factor (TNF) plus 1 μg/ml actinomycin D for 18 hours. Cell viability was determined by trypan blue dye exclusion. The percentage of viable cells was calculated by the number of viable cells (treated with a particular apoptogenic agent) divided by the number in the control group (untreated).
TABX2S cells and TABX1A cells were also examined for the effects of various mitochondrial inhibitors. […] Azide was diluted from an aqueous stock solution. […] Controls received an equivalent concentration of diluent. At various time points after drug treatment, cells were trypsinized, and cell viability was determined by trypan blue dye exclusion. The number of viable cells were counted and normalized to control group (i.e., % control=number of viable cells (treated group)/number of viable cells (control group)×100).

With `CC(C)[C@@H]1NC(=O)[C@H](C)OC(=O)[C@@H](C(C)C)NC(=O)[C@@H](C(C)C)OC(=O)[C@H](C(C)C)NC(=O)[C@H](C)OC(=O)[C@@H](C(C)C)NC(=O)[C@@H](C(C)C)OC(=O)[C@H](C(C)C)NC(=O)[C@H](C)OC(=O)[C@@H](C(C)C)NC(=O)[C@@H](C(C)C)OC1=O` [valinomycin], the “difference in sensitivity of the two cell lines” value (TABX2S vs TABX1A) is recorded as “no significant differences”. In addition, the “time until cell death apparent” value (after treatment, TABX2S and TABX1A cells) is recorded as “six to eight”.
